Assay results: patent US8440652B2, “MST1 kinase inhibitors and methods of their use” (Lexicon Pharmaceuticals, Inc., priority 2011, dated 2013)
Where two headings read alike, the source gives them in different places.

Biological target: T1, MST1 (Homo sapiens, UniProt Q13043)
T1 sequence (Q13043 1-487): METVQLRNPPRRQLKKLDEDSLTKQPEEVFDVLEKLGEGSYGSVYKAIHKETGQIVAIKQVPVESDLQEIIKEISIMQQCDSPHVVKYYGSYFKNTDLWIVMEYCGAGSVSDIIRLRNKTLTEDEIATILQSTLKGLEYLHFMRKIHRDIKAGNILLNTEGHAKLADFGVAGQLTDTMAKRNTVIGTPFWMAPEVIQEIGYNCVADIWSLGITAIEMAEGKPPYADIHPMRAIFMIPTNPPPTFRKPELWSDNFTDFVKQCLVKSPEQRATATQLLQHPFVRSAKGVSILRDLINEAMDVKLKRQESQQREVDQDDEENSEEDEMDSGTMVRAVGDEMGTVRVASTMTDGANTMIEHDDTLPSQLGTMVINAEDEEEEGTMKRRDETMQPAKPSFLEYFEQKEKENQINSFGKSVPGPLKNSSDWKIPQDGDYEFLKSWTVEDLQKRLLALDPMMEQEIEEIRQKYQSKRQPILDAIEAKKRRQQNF
Experiment: In vitro measurement of MST1 inhibition (Z′-Lyte kinase assay)
Format: biochemical

[1] = 1 μM ATP, read-out: IC50 (μM) 1 μM ATP
[2] = 50 μM ATP, read-out: IC50 (μM) 50 μM ATP

**Q.** `CN(C1CC1)S(=O)(=O)c1ccc(-c2cnc(N)c(-c3ccc4c(c3)C(C)(C)CNC4=O)n2)cc1` [4-(5-amino-6-(4,4-dimethyl-1-oxo-1,2,3,4-tetrahydroisoquinolin-6-yl)pyrazin-2-yl)-N-cyclopropyl-N-methylbenzenesulfonamide] was tested. Which IC50 [1] did it give?
**A.** Its IC50 is under 0.01 µM.

**Q.** What about the IC50 [2] of the same molecule?
**A.** The IC50 was under 0.01 µM.

**Q.** With `Nc1ncc(-c2ccc(S(=O)(=O)NC3CC3)c(Cl)c2)cc1-c1ccc2c(c1)CCNC2=O` [4-(6-amino-5-(1-oxo-1,2,3,4-tetrahydroisoquinolin-6-yl)pyridin-3-yl)-2-chloro-N-cyclopropylbenzenesulfonamide] as the molecule, how does the IC50 [1] read?
**A.** Its IC50 is under 0.01 µM.

**Q.** And the IC50 [2]?
**A.** The IC50 was under 0.01 µM.

**Q.** What does the source list for `Nc1ncc(-c2ccc(C(=O)NCC(F)(F)F)s2)cc1-c1ccc2c(c1)CCNC2=O` [5-(6-amino-5-(1-oxo-1,2,3,4-tetrahydroisoquinolin-6-yl)pyridin-3-yl)-N-(2,2,2-trifluoroethyl)thiophene-2-carboxamide]?
**A.** IC50 [1]: < 0.15 µM; IC50 [2]: < 0.05 µM

**Q.** Which IC50 [1] does the source give for `N#Cc1ccc(-c2cnc(N)c(-c3cc4c(cn3)C(=O)NCC4)c2)cc1` [4-(6-amino-5-(8-oxo-5,6,7,8-tetrahydro-2,7-naphthyridin-3-yl)pyridin-3-yl)benzonitrile] here?
**A.** Its IC50 is under 0.05 µM.

**Q.** And the IC50 [2]?
**A.** The IC50 was under 0.01 µM.

**Q.** With `COC(=O)CN(C)S(=O)(=O)c1ccc(-c2cnc(N)c(-c3ccc4c(c3)CCNC4=O)c2)cc1` [methyl 2-(4-(6-amino-5-(1-oxo-1,2,3,4-tetrahydroisoquinolin-6-yl)pyridin-3-yl)-N-methylphenylsulfonamido)acetate] as the molecule, how does the IC50 [1] read?
**A.** The IC50 was under 0.15 µM.

**Q.** And the IC50 [2]?
**A.** The IC50 was under 0.05 µM.

**Q.** How did the IC50 [1] turn out when `CCNS(=O)(=O)c1ccc(-c2cnc(N)c(-c3ccc4c(c3)CCC/C4=N\O)c2)cc1` [(E)-4-(6-amino-5-(5-(hydroxyimino)-5,6,7,8-tetrahydronaphthalen-2-yl)pyridin-3-yl)-N-ethylbenzenesulfonamide] was run?
**A.** The IC50 was under 0.05 µM.

**Q.** And the IC50 [2]?
**A.** Its IC50 is under 0.01 µM.

**Q.** Which results are given for `CCN(C)S(=O)(=O)c1ccc(-c2cnc(N)c(-c3ccc4c(c3)CCNC4=O)n2)nc1` [6-(5-amino-6-(1-oxo-1,2,3,4-tetrahydroisoquinolin-6-yl)pyrazin-2-yl)-N-ethyl-N-methylpyridine-3-sulfonamide]?
**A.** IC50 [1]: < 0.01 µM; IC50 [2]: < 0.01 µM

**Q.** `N#Cc1ccc(-c2cnc(N)c(-c3ccc4c(c3)C3(CC3)CNC4=O)n2)cc1` [4-(5-amino-6-(1′-oxo-2′,3′-dihydro-1′H-spiro[cyclopropane-1,4′-isoquinolin]-6′-yl)pyrazin-2-yl)benzonitrile] was tested. Which IC50 [1] did it give?
**A.** Its IC50 is under 0.05 µM.

**Q.** And the IC50 [2]?
**A.** Its IC50 is under 0.01 µM.

**Q.** How did the IC50 [1] turn out when `CCN(C)S(=O)(=O)c1cnc(-c2cnc(N)c(-c3ccc4c(c3)CCNC4=O)n2)cc1C` [6-(5-amino-6-(1-oxo-1,2,3,4-tetrahydroisoquinolin-6-yl)pyrazin-2-yl)-N-ethyl-N,4-dimethylpyridine-3-sulfonamide] was run?
**A.** The IC50 was under 0.01 µM.

**Q.** And the IC50 [2]?
**A.** The IC50 was under 0.01 µM.

**Q.** For `CN(Cc1ccc(-c2cnc(N)c(-c3ccc4c(c3)CCNC4=O)c2)cc1)C1CC1` [6-(2-amino-5-(4-((cyclopropyl(methyl)amino)methyl)phenyl)pyridin-3-yl)-3,4-dihydroisoquinolin-1(2H)-one], which IC50 [1] is on record?
**A.** Its IC50 is under 0.05 µM.

**Q.** What about the IC50 [2] of the same molecule?
**A.** The IC50 was under 0.01 µM.

**Q.** How did the IC50 [1] turn out when `Nc1ncc(-c2ccc(S(=O)(=O)NC3CC3)cc2)nc1-c1ccc2c(c1)NCCNC2=O` [4-(5-amino-6-(5-oxo-2,3,4,5-tetrahydro-1H-benzo[e][1,4]diazepin-8-yl)pyrazin-2-yl)-N-cyclopropylbenzenesulfonamide] was run?
**A.** Its IC50 is under 0.01 µM.

**Q.** What about the IC50 [2] of the same molecule?
**A.** The IC50 was under 0.01 µM.

**Q.** Which IC50 [1] does the source give for `C[C@H]1CNc2cc(-c3cc(-c4ccc(S(=O)(=O)NC5CC5)cc4)cnc3N)ccc2C(=O)N1` [(S)-4-(6-amino-5-(3-methyl-5-oxo-2,3,4,5-tetrahydro-1H-benzo[e][1,4]diazepin-8-yl)pyridin-3-yl)-N-cyclopropylbenzenesulfonamide] here?
**A.** Its IC50 is under 0.01 µM.

**Q.** What about the IC50 [2] of the same molecule?
**A.** Its IC50 is under 0.01 µM.

**Q.** How did the IC50 [1] turn out when `CC1(C)CNC(=O)c2ccc(-c3nc(-c4ccc(S(=O)(=O)NC5CC5)cc4)cnc3N)cc21` [4-(5-amino-6-(4,4-dimethyl-1-oxo-1,2,3,4-tetrahydroisoquinolin-6-yl)pyrazin-2-yl)-N-cyclopropylbenzenesulfonamide] was run?
**A.** Its IC50 is under 0.01 µM.

**Q.** And the IC50 [2]?
**A.** The IC50 was under 0.01 µM.

**Q.** Which results are given for `CCC(=O)c1ccc(-c2cnc(N)c(-c3ccc4c(c3)CCNC4=O)n2)cc1` [6-(3-amino-6-(4-propionylphenyl)pyrazin-2-yl)-3,4-dihydroisoquinolin-1(2H)-one]?
**A.** IC50 [1]: < 0.05 µM; IC50 [2]: < 0.01 µM

**Q.** Which results are given for `CC(C)(C#N)c1ccc(-c2cnc(N)c(-c3ccc4c(=O)[nH]ccc4c3)n2)cc1` [2-(4-(5-amino-6-(1-oxo-1,2-dihydroisoquinolin-6-yl)pyrazin-2-yl)phenyl)-2-methylpropanenitrile]?
**A.** IC50 [1]: < 0.05 µM; IC50 [2]: < 0.01 µM

**Q.** Which IC50 [2] does the source give for `CCCOc1ccc(-c2cnc(N)c(-c3ccc(C(N)=O)cc3)c2)cc1` [4-(2-amino-5-(4-propoxyphenyl)pyridin-3-yl)benzamide] here?
**A.** The IC50 was under 0.15 µM.

**Q.** `CC1CNc2cc(-c3nc(-c4ccc(S(=O)(=O)N(C)C5CC5)cc4)cnc3N)ccc2C(=O)N1` (stereo not shown) [4-(5-amino-6-(3-methyl-5-oxo-2,3,4,5-tetrahydro-1H-benzo[e][1,4]diazepin-8-yl)pyrazin-2-yl)-N-cyclopropyl-N-methylbenzenesulfonamide] was tested. Which IC50 [1] did it give?
**A.** The IC50 was under 0.01 µM.

**Q.** And the IC50 [2]?
**A.** Its IC50 is under 0.01 µM.

**Q.** Which IC50 [1] does the source give for `Cc1cc(-c2cnc(N)c(-c3ccc4c(c3)CCNC4=O)n2)ccc1C(C)(C)C#N` [2-(4-(5-amino-6-(1-oxo-1,2,3,4-tetrahydroisoquinolin-6-yl)pyrazin-2-yl)-2-methylphenyl)-2-methylpropanenitrile] here?
**A.** The IC50 was under 0.05 µM.

**Q.** And the IC50 [2]?
**A.** Its IC50 is under 0.01 µM.

**Q.** Which results are given for `CN(C1CC1)S(=O)(=O)c1ccc(-c2cnc(N)c(-c3ccc4c(c3)CCCNC4=O)n2)cc1` [4-(5-amino-6-(1-oxo-2,3,4,5-tetrahydro-1H-benzo[c]azepin-7-yl)pyrazin-2-yl)-N-cyclopropyl-N-methylbenzenesulfonamide]?
**A.** IC50 [1]: < 0.01 µM; IC50 [2]: < 0.01 µM

**Q.** For `CCN(C)S(=O)(=O)c1ccc(-c2cnc(N)c(-c3ccc4c(c3)CCNC4=O)n2)cc1` [4-(5-amino-6-(1-oxo-1,2,3,4-tetrahydroisoquinolin-6-yl)pyrazin-2-yl)-N-ethyl-N-methylbenzenesulfonamide], which IC50 [1] is on record?
**A.** Its IC50 is under 0.01 µM.

**Q.** And the IC50 [2]?
**A.** The IC50 was under 0.01 µM.

**Q.** With `CCCN(C)S(=O)(=O)c1ccc(-c2cnc(N)c(-c3ccc4c(c3)CCNC4=O)c2)nc1` [6′-amino-N-methyl-5′-(1-oxo-1,2,3,4-tetrahydroisoquinolin-6-yl)-N-propyl-[2,3′-bipyridine]-5-sulfonamide] as the molecule, how does the IC50 [1] read?
**A.** Its IC50 is under 0.01 µM.

**Q.** What about the IC50 [2] of the same molecule?
**A.** The IC50 was under 0.01 µM.

**Q.** What does the source list for `[2H]C([2H])([2H])N(C([2H])([2H])[2H])S(=O)(=O)c1ccc(-c2cnc(N)c(-c3ccc4c(c3)CCNC4=O)n2)cc1` [4-(5-amino-6-(1-oxo-1,2,3,4-tetrahydroisoquinolin-6-yl)pyrazin-2-yl)-N,N-di(trideuteromethyl)benzenesulfonamide]?
**A.** IC50 [1]: < 0.01 µM; IC50 [2]: < 0.01 µM

**Q.** Which results are given for `[2H]C1([2H])CNC(=O)c2ccc(-c3nc(-c4ccc(S(=O)(=O)N(C)C5CC5)cc4)cnc3N)cc21` [4-(5-amino-6-(4,4-dideutero-1-oxo-1,2,3,4-tetrahydroisoquinolin-6-yl)pyrazin-2-yl)-N-cyclopropyl-N-methylbenzenesulfonamide]?
**A.** IC50 [1]: < 0.01 µM; IC50 [2]: < 0.01 µM

**Q.** Which results are given for `Cn1cc(-c2cnc(N)c(-c3ccc4c(c3)CCNC4=O)n2)cn1` [6-(3-amino-6-(1-methyl-1H-pyrazol-4-yl)pyrazin-2-yl)-3,4-dihydroisoquinolin-1(2H)-one]?
**A.** IC50 [1]: < 0.15 µM; IC50 [2]: < 0.05 µM

**Q.** With `Nc1ncc(-c2ccc(F)cc2)cc1-c1ccc2c(c1)CCNC2=O` [6-(2-amino-5-(4-fluorophenyl)pyridin-3-yl)-3,4-dihydroisoquinolin-1(2H)-one] as the molecule, how does the IC50 [1] read?
**A.** Its IC50 is under 0.15 µM.

**Q.** And the IC50 [2]?
**A.** The IC50 was under 0.05 µM.

**Q.** Which IC50 [1] does the source give for `CC1(C)CNC(=O)c2ccc(-c3cc(-c4ccc(S(=O)(=O)NC5CC5)cc4)cnc3N)cc21` [4-(6-amino-5-(4,4-dimethyl-1-oxo-1,2,3,4-tetrahydroisoquinolin-6-yl)pyridin-3-yl)-N-cyclopropylbenzenesulfonamide] here?
**A.** Its IC50 is under 0.01 µM.

**Q.** And the IC50 [2]?
**A.** The IC50 was under 0.01 µM.

**Q.** With `N#CC1(c2ccc(-c3cnc(N)c(-c4ccc5c(c4)C4(CC4)CNC5=O)c3)cc2)CCOCC1` [4-(4-(6-amino-5-(1′-oxo-2′,3′-dihydro-1′H-spiro[cyclopropane-1,4′-isoquinolin]-6′-yl)pyridin-3-yl)phenyl)tetrahydro-2H-pyran-4-carbonitrile] as the molecule, how does the IC50 [1] read?
**A.** The IC50 was under 0.01 µM.

**Q.** And the IC50 [2]?
**A.** The IC50 was under 0.01 µM.

**Q.** With `Nc1ncc(-c2ccc(S(=O)(=O)NC3CCC3)cc2)cc1-c1ccc2c(c1)CCNC2=O` [4-(6-amino-5-(1-oxo-1,2,3,4-tetrahydroisoquinolin-6-yl)pyridin-3-yl)-N-cyclobutylbenzenesulfonamide] as the molecule, how does the IC50 [1] read?
**A.** The IC50 was under 0.01 µM.

**Q.** And the IC50 [2]?
**A.** The IC50 was under 0.01 µM.

**Q.** Which IC50 [1] does the source give for `CC1(C#N)CCc2cc(-c3cnc(N)c(-c4ccc5c(c4)CCNC5=O)c3)ccc21` (stereo not shown) [5-(6-amino-5-(1-oxo-1,2,3,4-tetrahydroisoquinolin-6-yl)pyridin-3-yl)-1-methyl-2,3-dihydro-1H-indene-1-carbonitrile] here?
**A.** The IC50 was under 0.15 µM.

**Q.** And the IC50 [2]?
**A.** The IC50 was under 0.01 µM.

**Q.** With `CC1(C)CNC(=O)c2ccc(-c3nc(-c4ccc(C5(C#N)CCOCC5)cc4)cnc3N)cc21` [4-(4-(5-amino-6-(4,4-dimethyl-1-oxo-1,2,3,4-tetrahydroisoquinolin-6-yl)pyrazin-2-yl)phenyl)tetrahydro-2H-pyran-4-carbonitrile] as the molecule, how does the IC50 [1] read?
**A.** Its IC50 is under 0.01 µM.

**Q.** What about the IC50 [2] of the same molecule?
**A.** The IC50 was under 0.01 µM.

**Q.** Which results are given for `Cc1cc(-c2cnc(N)c(-c3ccc4c(c3)C(C)(C)CNC4=O)n2)ccc1S(=O)(=O)NC1CC1` [4-(5-amino-6-(4,4-dimethyl-1-oxo-1,2,3,4-tetrahydroisoquinolin-6-yl)pyrazin-2-yl)-N-cyclopropyl-2-methylbenzenesulfonamide]?
**A.** IC50 [1]: < 0.01 µM; IC50 [2]: < 0.01 µM
